As a reminder, the melting point is the temperature of the solid-liquid transition.

The structures appear in SMILES notation. Some results are limits rather than exact numbers.

Series [1] concerns Sclerotinia sclerotiorum. As to the kind of experiment: Preventive effect against cucumber stem rot. It counts as in vivo. To be noted: 48 h, test solution A 500 ppm, 2 days. As to the method: Compounds of the present invention were dissolved in a solvent for emulsion (a mixture of Sorpol (registered trademark) 3005XL (manufactured by Toho Chemical Industry Co., Ltd.): N-methylpyrrolidone:Solvesso (registered trademark) 200 (manufactured by ExxonMobil Chemical) in a ratio of 1:5:2) to prepare 20% emulsifiable concentrates. Then, distilled water was added to dilute the emulsifiable concentrates to the predetermined concentration (500 ppm), and the obtained solutions were used in the following Test Examples 1 to 7. Cucumber (cultivar: Sagami Hanjiro) was planted in 90 cm^3 plastic pots, and in the seed leaf stage, 5 ml per pot of test solutions A of the compounds of the present invention were applied. After drying in air, the pots were put in a plastic container, and agar blocks (diameter: 5 mm) containing Sclerotinia sclerotiorum preliminarily cultivated in a PDA medium were inoculated to the seed leaves of the cucumber treated with the solutions. After the inoculation, the plastic container was covered with a plastic sheet and humidified, and placed at 20° C. for 2 days, whereupon the proportion of the formed lesion in the inoculated leaves was measured to calculate the control value in accordance with the same formula as in Test Example 1. Here, the test was carried out in duplicate.

Series [2] deals with Meloidogyne incognita. As to the kind of experiment: Preventive effect on Meloidogyne incognita (garden balsam seedlings, root knot). In kind it is in vivo. Conditions: 504 h, test solution B 100 ppm, 1 ml per seedling, 3 weeks, read-out: efficacy (damage degree, root knot, relative to non-treated plot). On the procedure:
Compounds of the present invention were dissolved in dimethylsulfoxide to prepare 1% solutions. Then, distilled water was added to dilute the solutions to the predetermined concentration (100 ppm), and the obtained solutions were used in the following Test Examples 8 to 12. 1 ml per seedling of test solutions B of the compounds of the present invention were treated to the bases of garden balsam seedlings (about 2 weeks after budding) planted in a cell tray of which each cell was filled with 10 g of soil. 1 Hour after the application, 1 ml per cell of water containing Meloidogyne incognita 2 L larvae (100 2 L larvae/1 ml) was applied to the bases. The tray was placed in a greenhouse for 3 weeks, and the root knot level formed on the root was determined in accordance with the following damage index and the damage degree to calculate the efficacy (%) relative to the non-treated plot in accordance with the following formula. <Damage Index> 0: No knot observed. 1: Knot observed on a part of the root system. 2: Knot observed on the entire root system. 3: Large knot observed. 4: Large knot observed on the entire root system. [Damage degree]=[Σ(damage index×number of seedlings at each index)/(4×number of seedlings investigated)]×100 Efficacy(%)=[1−(damage degree in treated plot/damage degree in non-treated plot)]×100

For series [3], the system named is Botrytis cinerea. Kind of series: Preventive effect against cucumber gray mold (spore inoculation). It counts as in vivo. To be noted: 72 h, cucumber leaves, 100 ppm solution (*), 3 days.
For series [4], the system named is Botrytis cinerea. As to the kind of experiment: Preventive effect against cucumber gray mold (mycelium inoculation). It counts as in vivo. Conditions: 48 h, 100 ppm solution (*), 2 days.
Series [5] relates to Sclerotinia sclerotiorum. Kind of series: Preventive effect against cucumber stem rot. To be noted: 48 h, 100 ppm solution (*), 2 days. In kind it is in vivo.
In series [6] the test system is Phaeosphaeria nodorum (synonym: Septoria nodorum). As to the kind of experiment: Preventive effect against wheat glume blotch. In kind it is in vivo. To be noted: Parastagonospora nodorum, 192 h, 100 ppm solution (*), 2 + 6 days.

In turn, `CO/N=C(/CNC(=O)c1ccccc1C(F)(F)F)c1ncc(Cl)cc1Cl` [Compound No. 2-114, (Z)—N-[2-(3,5-dichloropyridin-2-yl)-2-(methoxyimino)ethyl]-2-(trifluoromethyl)benzamide] returned a melting point of 88 to 89 °C. For the same molecule, the pest or weed control at 500 µg/mL in series [1] was at least 70%. Further, the pest or weed control at 100 µg/mL in series [2] was at least 50%. Moreover, the pest or weed control at 100 ppm in series [3] is at least 70%. The same molecule returned a pest or weed control at 100 ppm in series [4] of at least 70%.
`CC(C)O/N=C(/CNC(=O)c1ccccc1C(F)(F)F)c1ncc(C(F)(F)F)cc1Cl` [Compound No. 2-020, (Z)—N-[2-[3-chloro-5-(trifluoromethyl)pyridin-2-yl]-2-(isopropoxyimino)ethyl]-2-(trifluoromethyl)benzamide] had a melting point of 97 to 98 °C. Also, the pest or weed control at 100 ppm in series [3] was at least 70%. For the same molecule, the pest or weed control at 100 ppm in series [4] is at least 70%. Moreover, in series [5], the pest or weed control at 100 ppm was at least 70%. Also, the pest or weed control at 100 ppm in series [6] was at least 70%.
